{"source": "paper PMC12370890", "about": "(Nature Communications, 2025)", "tested_on": "Tcie612", "experiment": "GC-MS of hexane extract, Michaelis-Menten fit", "format": "biochemical, Trichoderma citrinoviride", "details": "25 mM MgCl2, 50 mM Tris-HCl pH 7.5, 100 mM KCl, 5 mM DTT, 5 mM hydroxypropyl-β-cyclodextrin, 30 °C, 30 min", "data": [{"smiles": "CC(C)=CCC/C(C)=C/CC/C(C)=C/CC/C(C)=C/COP(=O)(O)OP(=O)(O)O", "note": "[GGPP]", "values": [{"measurement": "Km", "value": "86.1 ± 8.19", "unit": "µM"}]}]}
